The record followed here is patent US12195588B2, “Polyether derivatives, uses, and methods of making the same” (P2 Science, Inc., priority 2017, dated 2025).

In this experiment the test system is female Yellow Fever mosquitos (Aedes aegypti). The format is in vivo. How it is done: Mosquitos are exposed to the treatments applied to 3-cm diameter collagen membranes placed over warmed, blood-filled wells in a multi-well plate. The wells are pre-warmed to 96-100° F., and then citrated whole blood with ATP is poured into each well to completely fill. The membrane is applied and secured using vacuum grease. To each membrane 25 microliters of the test solution is applied, and the solution is allowed to dry. The plate is then placed into a plastic box enclosure having 250 adult female mosquitos. The number of instances of a mosquito probing the membrane is recorded during a 20-minute period. The entire procedure is repeated until five replicates are complete. Treatment positions in the plates are rotated between each replicate to eliminate any positional bias. Fresh blood and mosquitoes are used in each replicate. Percent repellency is calculated by comparison to a negative control membrane treated only with water.
This is compared to a solution of DEET in IPA at 20% by weight as a control. The procedure is as described for Example 8.

[1] abbreviates: Example 8, 25 microliters on membrane, 20-minute period, five replicates, DEET as 20% isopropanol solution.
The mark [2] stands for this setting: Example 8, by comparison to water-treated membrane, DEET as 20% isopropanol solution.
Where [3] appears, read: Example 10, 20% by weight in IPA.

Read-outs that look alike come from different tables or passages of the source.

Regarding `CCN(CC)C(=O)c1cccc(C)c1` [DEET, di-ethyl-meta-toluamide], the “Mosquito Probes” value under setting [1] worked out at 0 and the “Mosquito Probes” value under setting [3] is 0. Besides, the “% Repellency” value under setting [2] is 100% and the “% Repellency” value under setting [3] is reported as 100%.

Consider Citronellol dimer [Sample A], for which the “Mosquito Probes” value under setting [1] was 0.4. Besides, the “% Repellency” value under setting [2] stood at 99.1%.

Regarding citronellol dimer acetate [Sample B], the “Mosquito Probes” value under setting [1] is recorded as 0.6. Also, the “% Repellency” value under setting [2] is reported as 98.8%.
